Measured values reported in US6046239A, “Anthranilic acid analogs” (American Home Products Corporation, priority 1998, dated 2000).

Key:
Aorta = assay: Inhibition of contractions in aorta (indication of selectivity); assay type: cell-based
[1] = test system: Isolated Rat Bladder Strips; assay: Inhibition of contractions in isolated rat bladder strips; assay type: cell-based
Protocol: Sprague-Dawley rats (150-200 g) are rendered unconscious by CO2 asphyxiation and then euthanized by cervical dislocation. […] The bladder is opened and then cut into strips 1-2 mm in width and 7-10 mm in length. The strips are subsequently suspended in a 10 mL tissue bath under an initial resting tension of 1.5 g. The strips are held in place by two surgical clips one of which is attached to a fixed hook while the other is attached to an isometric force transducer. […] The carbachol is then washed out and the tissue allowed to relax to its resting level of activity. Following a further 30 min period of recovery an additional 15 mM KCl are introduced into the tissue bath. […] Following stabilization of this enhanced level of contractile activity, incremental increases in the concentration of test compound or vehicle are introduced into the tissue bath. Contractile activity is measured for each compound or vehicle concentration during the last minute of a 30 minute challenge.

[2] = target: T1, calcium-dependent large conductance potassium channels (maxi K^+) (Rattus norvegicus, UniProt Q62976); assay: Potassium channel activation, whole cell patch clamp in isolated rat detrusor cells; assay type: cell-based; details: 10 μM in superfusate; isolated rat bladder cells
T1 construct: endogenous in cells; host or cells: freshly isolated rat detrusor (urinary bladder smooth muscle) cells
T1 sequence (Q62976 whole entry): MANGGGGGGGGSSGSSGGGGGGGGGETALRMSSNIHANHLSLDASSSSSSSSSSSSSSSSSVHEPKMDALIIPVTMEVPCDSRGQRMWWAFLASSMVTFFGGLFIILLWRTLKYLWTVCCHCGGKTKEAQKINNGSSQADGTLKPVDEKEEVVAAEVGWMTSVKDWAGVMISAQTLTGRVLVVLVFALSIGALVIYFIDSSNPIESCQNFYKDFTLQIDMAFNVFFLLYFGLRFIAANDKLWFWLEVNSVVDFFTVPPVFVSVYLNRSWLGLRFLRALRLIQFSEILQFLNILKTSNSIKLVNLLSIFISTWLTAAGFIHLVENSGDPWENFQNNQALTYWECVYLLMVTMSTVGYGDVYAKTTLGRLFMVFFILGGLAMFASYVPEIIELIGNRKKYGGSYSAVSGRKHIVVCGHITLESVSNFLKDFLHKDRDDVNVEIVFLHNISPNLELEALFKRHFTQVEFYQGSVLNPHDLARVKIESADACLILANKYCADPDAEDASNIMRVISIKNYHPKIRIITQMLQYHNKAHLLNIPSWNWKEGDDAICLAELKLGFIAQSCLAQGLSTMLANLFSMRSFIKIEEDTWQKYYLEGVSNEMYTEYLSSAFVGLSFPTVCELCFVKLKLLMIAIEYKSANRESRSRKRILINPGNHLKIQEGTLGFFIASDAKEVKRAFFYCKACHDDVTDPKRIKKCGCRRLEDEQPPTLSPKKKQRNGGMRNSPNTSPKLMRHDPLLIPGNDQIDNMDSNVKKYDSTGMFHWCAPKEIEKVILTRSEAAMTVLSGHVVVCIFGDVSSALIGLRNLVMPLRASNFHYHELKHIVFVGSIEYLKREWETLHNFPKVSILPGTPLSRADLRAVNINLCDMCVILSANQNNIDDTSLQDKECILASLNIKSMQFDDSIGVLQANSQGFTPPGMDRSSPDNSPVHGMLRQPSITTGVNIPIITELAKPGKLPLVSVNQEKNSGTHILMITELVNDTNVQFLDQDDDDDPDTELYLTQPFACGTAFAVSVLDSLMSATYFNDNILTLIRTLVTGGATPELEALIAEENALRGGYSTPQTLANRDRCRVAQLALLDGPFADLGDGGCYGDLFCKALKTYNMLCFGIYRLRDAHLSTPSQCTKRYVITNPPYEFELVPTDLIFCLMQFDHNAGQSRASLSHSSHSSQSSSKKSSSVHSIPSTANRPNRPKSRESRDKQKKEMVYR
T1 sequence (P97678 whole entry partner): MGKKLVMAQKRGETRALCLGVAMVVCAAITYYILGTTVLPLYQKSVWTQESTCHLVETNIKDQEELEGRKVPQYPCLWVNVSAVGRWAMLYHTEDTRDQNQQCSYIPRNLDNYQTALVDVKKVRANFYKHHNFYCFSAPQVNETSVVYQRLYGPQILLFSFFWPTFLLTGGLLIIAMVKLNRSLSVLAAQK
Protocol: Potassium channel activation by compounds of the present invention was established by examining the effect of the compound of Example 1 on calcium-dependent large conductance potassium channels (maxi K^+) as follows:
Rat detrusor cells were isolated in a manner previously described for guinea-pig detrusor (Sheldon and Argentieri, 1995). Male Sprague-Dawley rats (200-400 grams) were euthanized by CO2 inhalation and exsanguination. Their urinary bladders were rapidly removed and placed in 37° C. physiological solution with the following composition (mM): Na glutamate (80.0), NaCl (54.7), KCl (5.0), NaHCO3 (25.0), MgCl2.2H2 O (2.5), D-glucose (11.8) and CaCl2 (0.2) gassed with CO2 --O2, 95%/5% for a final pH of 7.4. The dome of the bladder was isolated from the trigon region and the mucosa was removed. This tissue was then cut into 2-3 mm wide strips and placed in fresh buffer for 1 hour. Tissues were then transferred into 10.0 ml of an isolation buffer containing the above composition plus collagenase type VIII (1.0 mg/ml) and pronase (0.25 mg/ml). After 10 minutes the isolation buffer was replaced with fresh isolation buffer for an additional 10 min. […]
Whole cell recordings were made using broken patch assess. […] After stability was achieved control currents were recorded. […] Currents were recorded for 5 to 10 minutes or until compound effects reached steady state. […]

[3] = test system: swelling induced chloride channel current; assay: Chloride channel blockade, swelling induced chloride current in bladder cells; assay type: cell-based, guinea pig; details: bladder cell, ICl type swelling (210 mOsm), 60 mV
Excerpt: Normal human bronchial epithelial cells (NHBE) were commercially available from Clonetics Corporation (San Diego, Calif.) and bladder cells were isolated from rat bladder.
The normal external solution contained (in mM): N-methyl d-Glucamine chloride (NMDGCl). 140, MgCl2 2, CaCl2 2 and 4-(2-hydroxyethyl)-1-piperazine ethanesulfonic acid (HEPES) 10. The normal pipette solution contained (in mM): NMDGCl. 125, HEPES 10, MgCl2 2, ethylenebis(oxonitrilo)tetaaacetate (EGTA) 2, and ATPMg 5, the pH adjusted to 7.3 with TRIS. To identify the leak conductance from depolarization, internal Cl ion concentration was reduced to 40 mM using glutamic acid (ECl approximately -31 mV according Nernst equation). The osmolarity for standard external solution was about 280 mOsm. Hypotonic solutions were obtained by diluting the normal external solution with distilled water.
The whole cell voltage clamp recording techniques were utilized to record membrane ionic currents. The volume of the recording chamber was 1 ml and the rate of superfusion was 4 ml/min. Membrane currents were recorded using an Axopatch 200A Patch Clamp Amplifier (Axon Instruments, Inc., Foster City, Calif.). Under voltage clamp conditions, the cells were stimulated at 0.2 Hz to be sure channels were completely recovered between two voltage steps. […]

C/C(=C\c1ccc(C(F)(F)F)cc1)C(=O)Nc1ccccc1C(=O)[O-].[Li+] [Example 1, Step 4, (E)-2-[2-Methyl-3-(4-trifluoromethyl-phenyl)-acryloylamino]-benzoic acid lithium salt]
IC50 (Aorta): 41.9 ± 8.4 µM
IC50 ([1]; contractions enhanced by additional 15 mM KCl, isolated rat bladder strips, read-out: IC50 /μM Bladder (B)): 1.07 ± 0.37 µM
IC50 (A)/ IC50 (B) ([1]; ratio aorta/bladder, indication of selectivity): 39.6
effect on outward current [2]: increase in outward current that was reversible upon washout
% blockade 20 μM [3]: 67%
